Experiments:
rat [1] = details: Sub-acute repeat dose toxicity, Oral, Gavage/Intubation, dose end: 30 day, group: systemic
primate [2] = details: Sub-acute repeat dose toxicity, Oral, Gavage/Intubation, dose end: 30 day, group: systemic
primate [3] = details: Sub-acute repeat dose toxicity; Oral; Gavage/Intubation; dose end: 4 day; group: systemic; systemic / in life observation / clinical signs / ataxia + systemic / in life observation / clinical signs / emesis + systemic / in life …
primate [4] = details: Sub-acute repeat dose toxicity; Oral; Gavage/Intubation; dose end: 10 day; group: systemic; systemic / clinical chemistry / alanine aminotransferase (alt/sgpt) / alanine aminotransferase (alt/sgpt) + systemic / clinical chemistry / …
rat [5] = details: Sub-acute repeat dose toxicity; Oral; Gavage/Intubation; dose end: 10 day; group: systemic; systemic / hematology / erythrocyte (rbc) count differential / erythrocyte (rbc) + systemic / hematology / hematocrit (hct) / hematocrit (…
rat [6] = details: Sub-acute repeat dose toxicity, sprague dawley, Oral, Gavage/Intubation, dose end: 14 day, group: systemic
primate [7] = details: Sub-acute repeat dose toxicity; Oral; Gavage/Intubation; dose end: 15 day; group: systemic; systemic / in life observation / clinical signs / emesis
primate [8] = details: Sub-acute repeat dose toxicity, Oral, Gavage/Intubation, dose end: 14 day, group: systemic
dog [9] = details: Sub-acute repeat dose toxicity, beagle, Oral, Gavage/Intubation, dose end: 10 day, group: systemic
rat [10] = details: Sub-acute repeat dose toxicity, sprague dawley, Oral, Gavage/Intubation, dose end: 14 day, group: systemic; remark: listed apart in the source
primate [11] = details: Sub-acute repeat dose toxicity; Oral; Gavage/Intubation; dose end: 20 day; group: systemic; systemic / in life observation / clinical signs / emesis
mouse [12] = details: Carcinogenicity; b6c3f1; Oral; Feed; dose end: 80 week; group: systemic; systemic / pathology microscopic / liver / carcinoma
rat [13] = details: Carcinogenicity; other; Oral; Feed; dose end: 80 week; group: systemic; systemic / in life observation / body weight / body weight + systemic / in life observation / clinical signs / [other] + systemic / in life …
dog [14] = details: Chronic toxicity; beagle; Oral; Feed; dose end: 107 week; group: systemic; systemic / clinical chemistry / [other] / [other] + systemic / clinical chemistry / alanine aminotransferase (alt/sgpt) / alanine …
mouse [15] = details: Carcinogenicity; cd1; Oral; Feed; dose end: 80 week; group: systemic; systemic / pathology microscopic / liver / hypertrophy + systemic / pathology microscopic / liver / infiltration cellular + systemic / …
dog [16] = details: Subchronic oral toxicity in nonrodent, beagle, Feed, dose end: 90 day, group: systemic, systemic / clinical chemistry / alanine aminotransferase (alt/sgpt) / alanine aminotransferase (alt/sgpt) + systemic / clinical chemistry / …
rat [17] = details: Multigenerational reproductive toxicity study, sprague dawley, Oral, Feed, dose end: 2 generation
rat [18] = details: Combined chronic toxicity/carcinogenicity, wistar, Oral, Feed, dose end: 24 month, group: systemic
rat [19] = details: Subchronic oral toxicity in rodents, other, Feed, dose end: 90 day, group: systemic, systemic / in life observation / body weight / body weight gain + systemic / organ weight / kidney / nos + systemic / organ weight / liver…
rat [20] = details: Prenatal developmental toxicity study, wistar, Oral, Gavage/Intubation, dose end: 20 GD
mouse [21] = details: Combined chronic toxicity/carcinogenicity, cd1, Oral, Gavage/Intubation, dose end: 104 week, group: systemic
rat [22] = details: Sub-acute repeat dose toxicity, wistar, Oral, Gavage/Intubation, dose end: 33 day, group: systemic
rat [23] = details: Combined chronic toxicity/carcinogenicity; wistar; Oral; Gavage/Intubation; dose end: 104 week; group: systemic; systemic / in life observation / mortality / mortality + systemic / pathology microscopic / intestine large / [other] + systemic / pathology…
primate [24] = details: Subchronic oral toxicity in nonrodent, macaque, Gavage/Intubation, dose end: 13 week
rat [25] = details: Chronic toxicity; wistar; Oral; Gavage/Intubation; dose end: 27 week; group: systemic; systemic / clinical chemistry / bile acids / bile acids + systemic / clinical chemistry / cholesterol / cholesterol + systemic / clinical …
[26] = systemic / clinical chemistry / cholesterol / cholesterol + systemic / clinical chemistry / cytochrome p450, nos / cytochrome p450, nos + …
[27] = systemic / clinical chemistry / urea nitrogen / urea nitrogen + systemic / hematology / neutrophils / neutrophils
[28] = systemic / clinical chemistry / cytochrome p450, nos / cytochrome p450, nos + systemic / hematology / blood clotting / blood clotting - …
[29] = systemic / clinical chemistry / albumin / albumin + systemic / clinical chemistry / globulins / globulins + systemic / clinical chemistry / …
[30] = systemic / in life observation / clinical signs / salivation
[31] = systemic / clinical chemistry / alanine aminotransferase (alt/sgpt) / alanine aminotransferase (alt/sgpt) + systemic / clinical chemistry / …
[32] = systemic / in life observation / clinical signs / emesis + systemic / in life observation / clinical signs / reduced activity
[33] = systemic / in life observation / clinical signs / emesis
[34] = systemic / in life observation / clinical signs / emesis + systemic / in life observation / clinical signs / abnormal feces
[35] = systemic / clinical chemistry / albumin / albumin + systemic / clinical chemistry / cholesterol / cholesterol + systemic / hematology / …
[36] = group: offspring, systemic / in life observation / body weight / offspring (pup) weight + systemic / in life observation / body weight / offspring (pup) …
[37] = group: parental, systemic / organ weight / kidney / absolute + systemic / organ weight / kidney / relative to body weight + systemic / organ weight / liver…
[38] = systemic / in life observation / body weight / body weight gain + systemic / pathology microscopic / brain / vacuolization + systemic / …
[39] = systemic / pathology microscopic / spleen / hemosiderosis + systemic / pathology microscopic / uterus / adenocarcinoma
[40] = group: developmental, developmental / developmental malformation / bone / short supernumerary
[41] = group: developmental, developmental / developmental malformation / bone / short supernumerary + systemic / in life observation / body weight / fetal weight
[42] = group: maternal, systemic / in life observation / body weight / body weight gain + systemic / in life observation / food consumption / food consumption
[43] = systemic / pathology microscopic / gallbladder / adenoma + systemic / pathology microscopic / gallbladder / hemangioma + systemic / …
[44] = systemic / pathology microscopic / gallbladder / adenoma + systemic / pathology microscopic / gallbladder / hyperplasia + systemic / …
[45] = systemic / clinical chemistry / albumin / albumin + systemic / clinical chemistry / chloride / chloride + systemic / clinical chemistry / …
[46] = systemic / clinical chemistry / potassium / potassium + systemic / clinical chemistry / triglycerides / triglycerides + systemic / organ …
[47] = group: maternal, reproductive / reproductive performance / estrous cycle / abnormal
[48] = group: systemic, systemic / clinical chemistry / gamma glutamyl transferase (ggt) / gamma glutamyl transferase (ggt) + systemic / clinical chemistry / …

CC(C)(C)c1nnc2ccc(-c3ocnc3-c3cc(F)c(F)cc3F)cn12
LOAEL (rat [1]; [26]): > 100 mg/kg/day
NOAEL (rat [1]; [26]): ≥ 100 mg/kg/day
LEL (rat [1]; [27]): 3 mg/kg/day
NEL (rat [1]; [27]): < 3 mg/kg/day
LOAEL (primate [2]; [28]): > 100 mg/kg/day
NEL (primate [2]; [28]): 3 mg/kg/day
NOAEL (primate [2]; [28]): ≥ 100 mg/kg/day
LEL (primate [2]; systemic / hematology / fibrinogen / fibrinogen): 10 mg/kg/day
LEL (primate [3]): 100 mg/kg/day
LOAEL (primate [3]): > 100 mg/kg/day
NEL (primate [3]): < 100 mg/kg/day
NOAEL (primate [3]): ≥ 100 mg/kg/day
LEL (primate [4]): 10 mg/kg/day
LOAEL (primate [4]): > 100 mg/kg/day
NEL (primate [4]): < 10 mg/kg/day
NOAEL (primate [4]): ≥ 100 mg/kg/day
LEL (rat [5]): 10 mg/kg/day
LOAEL (rat [5]): > 100 mg/kg/day
NEL (rat [5]): < 10 mg/kg/day
NOAEL (rat [5]): ≥ 100 mg/kg/day

CC(C)(O)c1ccc(CNC(=O)c2cccnc2Oc2ccc3nonc3c2)cc1
LOAEL (rat [6]; [29]): > 160 mg/kg/day
NOAEL (rat [6]; [29]): ≥ 160 mg/kg/day
LEL (rat [6]; [30]): 5 mg/kg/day
NEL (rat [6]; [30]): < 5 mg/kg/day
LEL (primate [7]): 5 mg/kg/day
LOAEL (primate [7]): > 50 mg/kg/day
NEL (primate [7]): 1 mg/kg/day
NOAEL (primate [7]): ≥ 50 mg/kg/day
LOAEL (primate [8]; [31]): > 1000 mg/kg/day
NOAEL (primate [8]; [31]): ≥ 1000 mg/kg/day
LEL (primate [8]; [32]): 20 mg/kg/day
NEL (primate [8]; [32]): < 20 mg/kg/day
LEL (dog [9]; [33]): 10 mg/kg/day
NEL (dog [9]; [33]): < 10 mg/kg/day
LOAEL (dog [9]; [34]): > 250 mg/kg/day
NOAEL (dog [9]; [34]): ≥ 250 mg/kg/day
LOAEL (rat [10]; [35]): > 125 mg/kg/day
NEL (rat [10]; [35]): 5 mg/kg/day
NOAEL (rat [10]; [35]): ≥ 125 mg/kg/day
LEL (rat [10]; systemic / pathology microscopic / mesentery / inflammation): 25 mg/kg/day
LEL (primate [11]): 20 mg/kg/day
LOAEL (primate [11]): > 300 mg/kg/day
NEL (primate [11]): < 20 mg/kg/day
NOAEL (primate [11]): ≥ 300 mg/kg/day

Nc1cc(Cl)cc(C(=O)O)c1Cl [Chloramben]
LEL (mouse [12]): 1500 mg/kg/day
LOAEL (mouse [12]): > 3000 mg/kg/day
NEL (mouse [12]): < 1500 mg/kg/day
NOAEL (mouse [12]): ≥ 3000 mg/kg/day
LEL (rat [13]): 1000 mg/kg/day
LOAEL (rat [13]): > 1000 mg/kg/day
NEL (rat [13]): 500 mg/kg/day
NOAEL (rat [13]): ≥ 1000 mg/kg/day

Nc1c(Cl)cc([N+](=O)[O-])cc1Cl [Dicloran]
LEL (dog [14]): 75 mg/kg/day
LOAEL (dog [14]): 75 mg/kg/day
NEL (dog [14]): 2.5 mg/kg/day
NOAEL (dog [14]): 2.5 mg/kg/day
LEL (mouse [15]): 86.5 mg/kg/day
LOAEL (mouse [15]): 86.5 mg/kg/day
NEL (mouse [15]): 24.5 mg/kg/day
NOAEL (mouse [15]): 24.5 mg/kg/day
LEL (dog [16]): 75 mg/kg/day
LOAEL (dog [16]): 75 mg/kg/day
NEL (dog [16]): 2.5 mg/kg/day
NOAEL (dog [16]): 2.5 mg/kg/day
LEL (rat [17]; [36]): 87 mg/kg/day
LOAEL (rat [17]; [36]): 87 mg/kg/day
NEL (rat [17]; [36]): 16.9 mg/kg/day
NOAEL (rat [17]; [36]): 16.9 mg/kg/day
NEL (rat [17]; group: parental, systemic / in life observation / clinical signs / discharge on cageboard): 16.9 mg/kg/day
LEL (rat [17]; [37]): 87 mg/kg/day
LOAEL (rat [17]; [37]): 87 mg/kg/day
NOAEL (rat [17]; [37]): 16.9 mg/kg/day
LOAEL (rat [18]; [38]): 71 mg/kg/day
NOAEL (rat [18]; [38]): 11.3 mg/kg/day
LEL (rat [18]; [39]): 3.7 mg/kg/day
NEL (rat [18]; [39]): < 3.7 mg/kg/day
LEL (rat [19]): 150 mg/kg/day
LOAEL (rat [19]): 150 mg/kg/day
NEL (rat [19]): 5 mg/kg/day
NOAEL (rat [19]): 5 mg/kg/day
LEL (rat [20]; [40]): 50 mg/kg/day
NEL (rat [20]; [40]): < 50 mg/kg/day
LOAEL (rat [20]; [41]): 100 mg/kg/day
NOAEL (rat [20]; [41]): 50 mg/kg/day
LEL (rat [20]; [42]): 50 mg/kg/day
LOAEL (rat [20]; [42]): 50 mg/kg/day
NEL (rat [20]; [42]): < 50 mg/kg/day
NOAEL (rat [20]; [42]): < 50 mg/kg/day

Cc1oc(-c2ccccc2)nc1CCOc1ccc(C[C@H](Nc2ccccc2C(=O)c2ccccc2)C(=O)O)cc1 [Farglitazar]
LOAEL (mouse [21]; [43]): > 50 mg/kg/day
NOAEL (mouse [21]; [43]): ≥ 50 mg/kg/day
LEL (mouse [21]; [44]): 1 mg/kg/day
NEL (mouse [21]; [44]): < 1 mg/kg/day
LOAEL (rat [22]; [45]): > 500 mg/kg/day
NOAEL (rat [22]; [45]): ≥ 500 mg/kg/day
LEL (rat [22]; [46]): 0.5 mg/kg/day
NEL (rat [22]; [46]): < 0.5 mg/kg/day
LEL (rat [23]): 0.5 mg/kg/day
LOAEL (rat [23]): > 20 mg/kg/day
NEL (rat [23]): < 0.5 mg/kg/day
NOAEL (rat [23]): ≥ 20 mg/kg/day
LEL (primate [24]; [47]): 50 mg/kg/day
LOAEL (primate [24]; [47]): > 50 mg/kg/day
NEL (primate [24]; [47]): 5 mg/kg/day
NOAEL (primate [24]; [47]): ≥ 50 mg/kg/day
LEL (primate [24]; [48]): 0.5 mg/kg/day
LOAEL (primate [24]; [48]): > 50 mg/kg/day
NEL (primate [24]; [48]): < 0.5 mg/kg/day
NOAEL (primate [24]; [48]): ≥ 50 mg/kg/day
LEL (rat [25]): 0.5 mg/kg/day
LOAEL (rat [25]): > 50 mg/kg/day
NEL (rat [25]): < 0.5 mg/kg/day
NOAEL (rat [25]): ≥ 50 mg/kg/day

Reference: EPA's ToxRefDB 2
